In the assay the target is T1, Fatty-acid amide hydrolase 1 (Mus musculus, UniProt O08914).
T1 sequence (O08914 whole entry): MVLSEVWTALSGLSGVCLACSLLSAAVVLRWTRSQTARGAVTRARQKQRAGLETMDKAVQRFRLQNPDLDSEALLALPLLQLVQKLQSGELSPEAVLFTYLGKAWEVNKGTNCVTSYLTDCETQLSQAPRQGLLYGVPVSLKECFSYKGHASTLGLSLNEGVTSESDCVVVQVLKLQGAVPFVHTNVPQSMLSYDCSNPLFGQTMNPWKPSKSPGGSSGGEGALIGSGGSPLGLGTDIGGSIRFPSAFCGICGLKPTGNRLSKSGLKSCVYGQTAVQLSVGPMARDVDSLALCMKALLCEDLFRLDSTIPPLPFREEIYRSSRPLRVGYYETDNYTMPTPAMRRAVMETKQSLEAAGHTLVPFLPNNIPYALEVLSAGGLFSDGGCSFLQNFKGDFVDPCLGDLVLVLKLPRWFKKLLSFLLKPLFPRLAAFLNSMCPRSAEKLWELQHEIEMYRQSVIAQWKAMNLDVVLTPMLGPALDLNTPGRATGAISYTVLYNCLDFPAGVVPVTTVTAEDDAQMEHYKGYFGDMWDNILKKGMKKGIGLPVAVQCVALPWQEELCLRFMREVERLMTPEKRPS
The assay is described as follows: In Vitro Competitive Activity-Based Protein Profiling: Proteomes (mouse brain membrane fraction or cell lysates) (50 μL, 1.0 mg/mL total protein concentration) were preincubated with varying concentrations of inhibitors at 37° C. After 30 min, FP¿Rh (1.0 μL, 50 μM in DMSO) was added and the mixture was incubated for another 30 min at 37° C. Reactions were quenched with SDS loading buffer (50 μL-4×) and run on SDS-PAGE. Following gel imaging, serine hydrolase activity was determined by measuring fluorescent intensity of gel bands corresponding to MAGL, ABHD6 and FAAH using ImageJ 1.43u software.

From ChEMBL document CHEMBL5725658, “Spirocycle compounds and methods of making and using same” (2018) come the findings set out here.

Broadly, the IC50 is the midpoint of a concentration-inhibition curve. For the compound `O=C(OC(C(F)(F)F)C(F)(F)F)N1CCC2(CCCN2Cc2ccc(OCCN3CCOCC3)cc2)CC1`, the 50% inhibitory concentration (IC50) was > 1000 nM.
